Assay [1] concerns β-hydroxybutyrate production in rat hepatocytes. Kind of assay: Oleate-stimulated β-hydroxybutyrate production in rat hepatocytes. In kind it is cell-based. As to conditions: 40 min incubation, then oleate 1 mM for 20 min, mean of three experiments, read-out: IC50 of inhibition CPTI curve of β-hydroxybutyrate production in rat hepatocytes. Here is the method: β-hydroxybutyrate production is an index of CPT activity. In fact, the production of ketone bodies, final products of mitochrondrial β-oxidation, is related to CPT activity.
Mitocondrial preparations, obtained according to the method by Venerando et al. (Am. J. Physiol. 266:C455-C461, 1994), were used. Hepatocytes are incubated at 37° C. in KRB bicarbonate buffer at pH 7.4, 6 mM glucose, 1% BSA in O2/CO2 95/5 atmosphere at 2.5×10^6 cells/ml. After 40 min incubation with the test compound at different concentrations, the first set of samples was taken (T0 min) and oleate was added (1 mM final in KRB+BSA 1.4%). After 20 minutes, the second withdrawal was made (T20 min)
The data are the mean of three different experiments, twice carried out.

For a further assay, the target named is T1, CPTI (Rattus norvegicus, UniProt P32198).
T1 construct: Mitochondria were isolated from liver or heart and suspended in 75 mM saccharose buffer; from tissue; host or cells: liver mitochondria of normally fed Fischer rats
T1 sequence (P32198 1-773): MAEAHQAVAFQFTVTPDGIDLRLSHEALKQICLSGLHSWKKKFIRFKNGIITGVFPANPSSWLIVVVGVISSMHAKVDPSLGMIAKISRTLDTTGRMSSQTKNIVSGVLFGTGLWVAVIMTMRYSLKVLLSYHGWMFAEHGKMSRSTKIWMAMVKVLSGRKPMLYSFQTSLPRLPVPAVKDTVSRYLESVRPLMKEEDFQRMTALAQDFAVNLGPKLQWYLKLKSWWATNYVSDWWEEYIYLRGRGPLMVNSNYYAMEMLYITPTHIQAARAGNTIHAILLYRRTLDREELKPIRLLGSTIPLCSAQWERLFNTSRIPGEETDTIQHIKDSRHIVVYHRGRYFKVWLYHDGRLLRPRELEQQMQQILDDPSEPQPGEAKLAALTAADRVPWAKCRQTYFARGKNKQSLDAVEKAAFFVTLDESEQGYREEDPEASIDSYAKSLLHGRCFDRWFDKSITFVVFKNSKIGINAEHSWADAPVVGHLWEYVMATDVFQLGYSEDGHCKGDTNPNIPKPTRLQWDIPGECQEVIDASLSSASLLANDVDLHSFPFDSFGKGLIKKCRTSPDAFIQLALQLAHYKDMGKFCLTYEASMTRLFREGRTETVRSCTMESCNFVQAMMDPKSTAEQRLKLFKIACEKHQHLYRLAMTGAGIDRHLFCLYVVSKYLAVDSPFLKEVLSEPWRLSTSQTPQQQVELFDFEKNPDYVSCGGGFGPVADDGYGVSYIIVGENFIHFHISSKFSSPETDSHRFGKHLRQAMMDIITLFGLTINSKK
Kind of assay: Determination of CPT inhibiting activity in rat liver mitochondria. In kind it is biochemical, Fischer rat. The conditions noted are these: 50 μM [14C] palmitoyl-CoA, 10 mM L-carnitine, 37° C., 1 minute, read-out: IC50 of inhibition CPTI curve in rat liver mitochondria. Here is the method:
CPT inhibition was evaluated essentially as described in Kerner, J. & Bieber, L. L. (1990) Biochemistry 29: 4326-34 on fresh mitochrondrial preparation obtained from normally fed Fischer rat liver or heart. Mitochondria were isolated from liver or heart and suspended in 75 mM saccharose buffer, 1 mM EGTA, pH 7.5. 100 μl mitochrondrial suspension, containing 50 μM [^14C] palmitoyl-CoA (specific activity […]) and 10 mM L-carnitine, were incubated at 37° C., in the presence of scalar concentrations of the test product (0-3 mM). Reaction time: 1 minute.

Another assay relates to 24 hours-starved rats. The assay can be described thus: Glucose and β-hydroxybutyrate in serum of fasted rats treated with CPT inhibitors. In kind it is in vivo, Fischer rats. The conditions noted are these: one hour after intraperitoneal treatment, ST1326 14.5 mg/2 ml/kg, others equivalent dose. Here is the method: Normally fed Fischer rats were starved for 24 hours and subsequently treated with the test compounds. One hour after the treatment, the animals were sacrificed and serum concentrations of glucose and β-hydroxybutyrate were determined.
For the compound ST1326 were used doses of 14.5 mg/2 ml/kg, for other test compounds, the doses are equivalent to ST1326 one.

For another assay, the system named is fed with high-fat diet. The assay can be described thus: Glucose and insulin levels in diabetic animals (high-fat diet) treated with CPT inhibitors. In kind it is in vivo, C57BL/6J male rats. The conditions noted are these: 45 mg/Kg p.o. twice a day, after 20 days of treatment. As to the method: C57BL/6J male […], 5-weeks old, were provided by Ch. River. After 10 days of acclimatisation in standard conditions (22±2° C.; 55±15% humidity; 15-20/h air changes; 12 hours light-dark cycle, with 700-1900 lux) and with standard diet with 4RF21 feedstock (Mucedola), glycaemia was controlled in post-absorption state (starving from 8.30 a.m. to 4.30 p.m.). Blood withdrawal was carried out cutting the tail end. Glucose was analyzed in blood acid supernatant (HCLO4 0,375 N) with autoanalyzer Cobas Mira S with Glucose GDH Kit (Roche).
The animals were divided in two groups, 26 mice each and fed with a high-fat and a low-fat diet, respectively.
After 2 months from the start of the diet, glycaemia was tested, according to the starrting method. After about 3 months from the start of the diet, glycaemia was tested, according to the starting method and plasma insulin levels were also determined (with blood withdrawal from end tail cutting) using [125I] Rat Insulin Kit (Amersham).
One 10 mice group fed with low-fat diet and two 10-mice groups fed with the high-fat diet were selected. One of the two high fat diet was administered with ST 1327 at the dose of 45 mg/Kg in deionised H2O (p.o., twice a day, 8.30 a.m. and 5.30 p.m.).administration volume was 10 ml/Kg, the two remaining groups were treated with vehicle only. High-fat or low-fat diets were continued during the treatment.
After 20 days of treatment, glycaemia and plasma insulin were measured. After 43 days of treatment, the animals were sacrificed by decapitation in post-absorption state (fasting 8.30 a.m.-4.30 p.m.), 8 hours after the last treatment. Blood was withdrawn and serum was separated by centrifugation and stored at −80° C. Liver, heart and skeletal muscle (upper limbs) were also extracted, frozen in dry ice-acetone and kept at −80° C.

For assay [2], the system named is hearts perfused according to Langendorff technique. The assay can be described thus: Myocardial ischemia: LDH release from Langendorff-perfused rat hearts (ischemia/reperfusion). Also on record: species or system male Wistar rats. As to the method:
To this end, male Wistar rats, weighing 200-225 g, provided by Charles-River, were kept at constant temperature of 23°+/−1° C., 50+/−10% relative humidity, 12 hours light-dark cycle, fed with pellet 4RF21 (Mucedola) tap water ad libitum.
The amimals were anaesthetised with sodium Pentobarbital at the dose of 70 mg/Kg i.p.. Hearts were rapidly removed and put in a cold Krebs-Henseleit solution, before incannulation of aorta e subsequent perfusion according to Langendorff technique at 37° C. with a pressure of 100 cm water.
Perfusion medium (Krebs-Henseleit) at pH 7.4 consists in: 128 mM NaCl, 4.7 mM KCl, 1 mM MgCl2, 0.4 mM Na2HP04, 20.2 mM NaHCO3, 1.3 mM CaCl2, 5 mM glucose. The medium was constantly oxygenated with carbogen (95% O2, 5% CO2).
After a 10 min “conditioning” period, hearts were perfused in a recirculant apparatus for 20 min. with the same medium containing 0.6 mM palmitate complexed with albumine (fraction V, fatty acid free), with or without the CPT inhibitor according to the present invention. By way of example ST 1364 was used at concentrations of 1 and 5 μM. After such a period ischemia was induced by reducing perfusion hydrostatic pressure from 100 cm to 20 cm for a period of 30 min. Reperfusion was started re-establishing the starting pressure conditions (100 cm).Hearts were controlled for 20 min. the inhibitor is present also during reperfusion phase.
Lactate dehydrogenases (LDH) release was monitored in the effluent in normal oxygenation conditions, during ischemia, with a withdrawal of medium at 30′, and during reperfusion, with withdrawals at 1.5, 10, 15 and 20 minutes.
Statistical analysis was carried out with Student's “t” test for non-paired data.
The number of the cases for each group is six (n=6).

pIC50: −log10 of the molar value.

As to `CCCCCCCCCCCCCCOP(=O)([O-])O[C@H](CC(=O)O)C[N+](C)(C)C` [SDZ-CPI-975, reference compound], in assay [1], the pIC50 (as a rule, the IC50 on a negative log10 scale, so that one unit is a factor of ten) is 5.43. Further, at CPTI, the negative logarithm of the IC50 (pIC50) is 4.76. For the same compound, in the assay on 24 hours-starved rats, the “Glu (glucose) serum concentration, Mean” value was found to be 87.6 and the “β-OHB serum concentration, Mean” value came out at 119.9.
Regarding `CCCCCCCCCNC(=O)NC(CC(=O)[O-])C[N+](C)(C)C` (centres unmarked) [ST1251, R,S-4-trimethylammonium-3-(nonylcarbamoyl)aminobutyrate], the pIC50 in assay [1] is 6.30. In the assay on 24 hours-starved rats, the “Glu (glucose) serum concentration, Mean” value was determined as 76.9 and the “β-OHB serum concentration, Mean” value is listed as 99.8.
As for `CCCCCCCCOC(=O)NC(CC(=O)O)C[N+](C)(C)C.[Cl-]` (centres unmarked) [ST1253, R,S-4-trimethylammonium-3-(octyloxycarbonyl)-aminobutyrate chloride], the pIC50 in assay [1] is 6.05. Moreover, in the assay on 24 hours-starved rats, the “Glu (glucose) serum concentration, Mean” value stood at 88.2 and the “β-OHB serum concentration, Mean” value was determined as 118.8.
For the compound `CCCCCCCCCOC(=O)NC(CC(=O)[O-])C[N+](C)(C)C` (centres unmarked) [ST1285, R,S-4-trimethylammonium-3-(nonyloxycarbonyl)-aminobutyrate], the pIC50 in assay [1] was 5.72.
As for `CCCCCCCCCCCCCCNC(=O)N[C@H](CC(=O)[O-])C[N+](C)(C)C` [ST1326, R-4-trimethylammonium-3-(tetradecylcarbamoyl)amino butyrate], the pIC50 on CPTI was 6.12. Also, in the assay on 24 hours-starved rats, the “Glu (glucose) serum concentration, Mean” value turned out to be 84.2 and the “β-OHB serum concentration, Mean” value was 133.1.
As to `CCCCCCCCCCCNC(=O)N[C@H](CC(=O)[O-])C[N+](C)(C)C` [ST1327, R-4-trimethylammonium-3-(undecylcarbamoyl)-aminobutyrate], at CPTI, the negative-log IC50 (pIC50) is 5.49. Besides, the Glucose in the assay with fed with high-fat diet (High Fat diet Treated, p<0.001 against high fat diet) was 181.4 ± 9.63 mg/dL. Moreover, the Insulin with fed with high-fat diet (High Fat diet Treated, p<0.01 against high fat diet) amounted to 0.621 ± 0.117 ng/mL. Besides, in the assay with fed with high-fat diet (high-fat diet), the “glucose levels (in words)” value was “significantly decreased” and the “insulin levels (in words)” value is “significantly decreased”. In addition, in the assay with 24 hours-starved rats, the “Glu (glucose) serum concentration, Mean” value is given as 84.9 and the “β-OHB serum concentration, Mean” value is 93.0.
For the compound `CCCCCCCNC(=O)N[C@H](CC(=O)[O-])C[N+](C)(C)C` [ST1328, R-4-trimethylammonium-3-(heptylcarbamoyl)-aminobutyrate], in the assay on 24 hours-starved rats, the “Glu (glucose) serum concentration, Mean” value is 79.5 and the “β-OHB serum concentration, Mean” value is 169.2.
On to `CCCCCCCCCCS(=O)(=O)NC(CC(=O)[O-])C[N+](C)(C)C` (centres unmarked) [ST1364, R,S-4-trimethylammonium-3-(decansulfonyl)aminobutyrate], for which the “LDH release in perfusate” value is recorded as 275 mU/ml/min in assay [2] (1 μM, Basal); 220 mU/ml/min in assay [2] (1 μM, Ischemia 30′); 480 mU/ml/min in assay [2] (1 μM, Reperfusion 1′); 500 mU/ml/min in assay [2] (1 μM, Reperfusion 5′); 495 mU/ml/min in assay [2] (1 μM, Reperfusion 10′); 510 mU/ml/min in assay [2] (1 μM, Reperfusion 15′). For the same compound, the “LDH release in perfusate” value in assay [2] (1 μM, Reperfusion 20′) is 580 mU/ml/min; in assay [2] (5 μM, Basal), 220 mU/ml/min; in assay [2] (5 μM, Ischemia 30′), 200 mU/ml/min; in assay [2] (5 μM, Reperfusion 1′) it was 410 mU/ml/min; in assay [2] (5 μM, Reperfusion 5′), 380 mU/ml/min; in assay [2] (5 μM, Reperfusion 10′) it was 380 mU/ml/min. Besides, the “LDH release in perfusate” value is on record as 320 mU/ml/min in assay [2] (5 μM, Reperfusion 15′) and 325 mU/ml/min in assay [2] (5 μM, Reperfusion 20′). In addition, the “LDH release in the effluent during reperfusion (in words)” value in assay [2] (5 μM, with respect to the controls) is listed as “significantly reduced”.

The values are drawn from patent USRE41226E1, “Compounds having reversible inhibiting activity of carnitine palmitoyl-transferase” (Sigma-Tau Industrie Farmaceutiche Riunite S.p.A., priority 1998, dated 2010).
